The term EC50 denotes the concentration that produces a half-maximal response.

The values below come from publication PMC7127349 (Bioorganic & Medicinal Chemistry Letters, 2018).

This assay has as its system human coronavirus (229E). In kind it is cell-based.

For `CCOC(=O)C1(Cc2ccccc2)CN(c2ccccc2)Cc2nnn(Cc3ccc(F)cc3)c21` (stereo not drawn) [Compound 14d], the “activity against human coronavirus (229E) lower than the activity observed with UDA” value is recorded as “approximately 50 fold”. In the case of `CCOC(=O)C1(Cc2ccccc2)CN(c2ccccc2)Cc2nnn(CCc3cc4ccccc4[nH]3)c21` (stereo not drawn) [Compound 14n], the “activity against human coronavirus (229E) lower than the activity observed with UDA” value was “approximately 50 fold”. Still for that read-out and setting: next, `CCOC(=O)C1(Cc2ccc(F)cc2)CN(c2ccccc2)Cc2nnn(Cc3ccc(Cl)c(Cl)c3)c21` (stereo not drawn) [Compound 14q]: “approximately 50 fold”.

On to `COc1ccc(CCn2nnc3c2CCN(c2ccc(C(F)(F)F)cc2)C3)cc1` [Compound 18f], for which the “activity against human coronavirus (229E) lower than the activity observed with UDA” value is recorded as “approximately 50 fold”. With `Fc1cccc(Cn2nnc3c2CCN(c2ccc(C(F)(F)F)cc2)C3)c1` [Compound 18i], the “activity against human coronavirus (229E) lower than the activity observed with UDA” value is reported as “approximately 50 fold”.

B1: Urtica dioica agglutinin (protein, UniProt P11218 24-372, looked up)
Lectin/endochitinase 1: QRCGSQGGGGTCPALWCCSIWGWCGDSEPYCGRTCENKCWSGERSDHRCGAAVGNPPCGQDRCCSVHGWCGGGNDYCSGSKCQYRCSSSVRGPRVALSGNSTANSIGNVVVTEPLFDQMFSHRKDCPSQGFYSYHSFLVAAESFPAFGTIGDVATRKREVAAFLAHISQATSGERSDVENPHAWGLCHINTTTVTENDFCTSSDWPCAAGKKYSPRGPIQLTHNFNYGLAGQAIGEDLIQNPDLVEKDPIISFKTALWFWMSQHDNKPSCHDIVLNANSAANRIPNKGVIGNIISRAFGHDDFAVRSSSIGFYKRYCDMLGVSYGHDLKYWFDNTPSSEFQRIQMRVAA
For B1, the EC50 (read-out: EC50 Human Coronavirus (229E)) is 200 nM.
